From ChEMBL document CHEMBL1143289, “Potent and selective adenosine A2A receptor antagonists: 1,2,4-Triazolo[1,5-c]pyrimidines” (Bioorg Med Chem Lett, 2009)

Key:
Rattus norvegicus [1] = assay: Inhibition of haloperidol-induced catalepsy in rat at 1 mg/kg, po after 4 hrs; format: functional
Rattus norvegicus [2] = assay: Inhibition of haloperidol-induced catalepsy in rat at 3 mg/kg, po after 4 hrs; format: functional
Rattus norvegicus [3] = assay: Inhibition of haloperidol-induced catalepsy in rat at 1 mg/kg, po after 1 hr; format: functional
Rattus norvegicus [4] = assay: Inhibition of haloperidol-induced catalepsy in rat at 3 mg/kg, po after 1 hr; format: functional
Homo sapiens = species on record: Homo sapiens; assay: Selectivity for human adenosine A1 receptor over human adenosine A2A receptor
[5] = AUC in rat plasma at 3 mg/kg, po; format: ADME, organism-based; design: dose 3 mg/kg, route oral
Adenosine receptor A2a = Adenosine receptor A2a (Homo sapiens, UniProt P29274); assay: Displacement of [3H]SCH58261 from human adenosine A2A receptor expressed in HEK293 cells; format: cell-based
Rattus norvegicus [6] = assay: Inhibition of haloperidol-induced catalepsy in rat at 0.3 mg/kg, po after 4 hrs; format: functional; conditions: read-out: INH
Rattus norvegicus [7] = assay: Inhibition of haloperidol-induced catalepsy in rat at 0.1 mg/kg, po after 4 hrs; format: functional
Rattus norvegicus [8] = assay: Inhibition of haloperidol-induced catalepsy in rat at 0.3 mg/kg, po after 1 hr; format: functional; conditions: read-out: INH
Rattus norvegicus [9] = assay: Inhibition of haloperidol-induced catalepsy in rat at 0.1 mg/kg, po after 1 hr; format: functional; conditions: read-out: INH
Rattus norvegicus [10] = assay: Inhibition of haloperidol-induced catalepsy in rat at 0.3 mg/kg, po after 1 hr; design: scale not given: the % may be the effect or the level left

Chain of Adenosine receptor A2a (P29274 whole entry): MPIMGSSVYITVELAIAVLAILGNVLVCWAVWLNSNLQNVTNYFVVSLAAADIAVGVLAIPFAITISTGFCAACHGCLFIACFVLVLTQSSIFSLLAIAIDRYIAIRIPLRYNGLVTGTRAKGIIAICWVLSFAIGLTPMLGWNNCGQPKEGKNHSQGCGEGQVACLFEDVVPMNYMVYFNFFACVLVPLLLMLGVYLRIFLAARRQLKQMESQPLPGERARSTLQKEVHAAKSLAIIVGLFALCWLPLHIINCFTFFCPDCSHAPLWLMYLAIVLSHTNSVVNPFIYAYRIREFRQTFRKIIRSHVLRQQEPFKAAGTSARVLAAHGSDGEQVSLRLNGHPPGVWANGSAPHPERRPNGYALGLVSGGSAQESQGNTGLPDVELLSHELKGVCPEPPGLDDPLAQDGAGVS

Row | SMILES | inhibition in vivo at 1 mg/kg (Rattus norvegicus [1]) | inhibition in vivo at 3 mg/kg (Rattus norvegicus [2]) | inhibition in vivo at 1 mg/kg (Rattus norvegicus [3]) | inhibition in vivo at 3 mg/kg (Rattus norvegicus [4]) | Ratio (Homo sapiens) | AUC [5] | Ki (Adenosine receptor A2a) | further results
1 | CN(CCN1CCN(c2ccc(F)cc2F)CC1)c1cc2nc(-c3ccco3)nn2c(N)n1 | 30% | 35% | 50% | 75% | 1580 | 53 ng·h/mL | 1 nM | 
2 | COCCOc1ccc(N2CCN(CCn3ncc4c3nc(N)n3nc(-c5ccco5)nc43)CC2)cc1 [PRELADENANT] | 70% |  | 77% |  |  |  |  | inhibition in vivo at 0.3 mg/kg (Rattus norvegicus [6]): 60%; inhibition in vivo at 0.1 mg/kg (Rattus norvegicus [7]): 60%; inhibition in vivo at 0.3 mg/kg (Rattus norvegicus [8]): 60%; inhibition in vivo at 0.1 mg/kg (Rattus norvegicus [9]): 25%
3 | COCCOc1ccc(N2CCN(CCN(C)c3cc4nc(-c5ccco5)nn4c(N)n3)CC2)cc1 | 0% |  | 15% |  | 694 | 521 ng·h/mL | 2.5 nM | 
4 | COc1ccc(CCCN(C)c2cc3nc(-c4ccco4)nn3c(N)n2)cc1 |  |  |  |  | 76 |  | 5.7 nM | 
5 | COCCN(CCc1ccc(F)cc1)c1cc2nc(-c3ccco3)nn2c(N)n1 |  |  |  |  | 566 |  | 1 nM | 
6 | Nc1nc(OCCN2CCN(c3ccc(F)cc3F)CC2)cc2nc(-c3ccco3)nn12 |  | 0% | 45% | 25% | 275 | 187 ng·h/mL | 6 nM | 
7 | Nc1nc(N(CCN2CCN(c3ccc(F)cc3F)CC2)CC2CC2)cc2nc(-c3ccco3)nn12 | 34% | 41% | 40% | 65% | 831 | 17 ng·h/mL | 0.3 nM | 
8 | COc1ccc(CN(C)c2cc3nc(-c4ccco4)nn3c(N)n2)cc1 |  |  |  |  | 40 |  | 46 nM | 
9 | COCCOc1ccc(N2CCN(CCN(CCOC)c3cc4nc(-c5ccco5)nn4c(N)n3)CC2)cc1 | 6% | 37% | 29% | 57% | 338 | 355 ng·h/mL | 0.7 nM | 
10 | COc1ccc(CCSc2cc3nc(-c4ccco4)nn3c(N)n2)cc1 |  |  |  |  | 58 |  | 1.6 nM | 
11 | COCCOc1ccc(N2CCN(CCOc3cc4nc(-c5ccco5)nn4c(N)n3)CC2)cc1 | 25% |  | 25% |  | 405 | 943 ng·h/mL | 2.8 nM | 
12 | COc1ccc(CCCc2cc3nc(-c4ccco4)nn3c(N)n2)cc1 |  |  |  |  | 31 |  | 11.5 nM | 
13 | COc1ccc(CCNc2cc3nc(-c4ccco4)nn3c(N)n2)cc1 |  |  |  |  | 20 |  | 5.8 nM | 
14 | Nc1nc2c(cnn2CCN2CCN(c3ccc(F)cc3F)CC2)c2nc(-c3ccco3)nn12 | 80% |  | 75% |  |  |  |  | Activity (Rattus norvegicus [10]): 75%
15 | CN(CCN1CCN(c2ccc(F)cc2F)CC1)c1cc2nc(-c3cccc(C#N)c3)nn2c(N)n1 |  | 14% |  | 35% | 620 | 1300 ng·h/mL | 1.8 nM | 
16 | COCCOc1ccc(N2CCN(CCN(C)c3cc4nc(-c5cccc(C#N)c5)nn4c(N)n3)CC2)cc1 |  | 31% |  | 29% | 1070 | 546 ng·h/mL | 0.7 nM | 

Row | SMILES | inhibition in vivo at 1 mg/kg (Rattus norvegicus [1]) | inhibition in vivo at 3 mg/kg (Rattus norvegicus [2]) | inhibition in vivo at 1 mg/kg (Rattus norvegicus [3]) | inhibition in vivo at 3 mg/kg (Rattus norvegicus [4]) | Ratio (Homo sapiens) | AUC [5] | Ki (Adenosine receptor A2a) | further results
17 | CN(CCN1CCN(c2ccc(F)cc2F)CC1)c1cc2nc(-c3cnco3)nn2c(N)n1 |  |  |  |  | 7000 |  | 0.3 nM | 
18 | COCCOc1ccc(N2CCN(CCN(CC3CC3)c3cc4nc(-c5ccco5)nn4c(N)n3)CC2)cc1 | 32% | 77% | 7% | 65% | 234 | 245 ng·h/mL | 0.8 nM | 
19 | COCCOc1ccc(N2CCN(CCN(C)c3cc4nc(-c5ccccc5)nn4c(N)n3)CC2)cc1 |  |  |  |  | 56 |  | 25 nM | 
20 | COCCOc1ccc(N2CCN(CCNc3cc4nc(-c5ccco5)nn4c(N)n3)CC2)cc1 |  |  |  |  | 145 | 103 ng·h/mL | 9.5 nM | 
21 | COCCN(CCN1CCN(c2ccc(F)cc2F)CC1)c1cc2nc(-c3ccco3)nn2c(N)n1 |  | 57% |  | 56% | 1060 |  | 0.5 nM | 
22 | CCN(CCN1CCN(c2ccc(F)cc2F)CC1)c1cc2nc(-c3ccco3)nn2c(N)n1 |  |  |  |  | 312 | 50 ng·h/mL | 0.9 nM | 
23 | COCCOc1ccc(N2CCN(CCOc3cc4nc(-c5ccc(Cl)o5)nn4c(N)n3)CC2)cc1 |  |  |  |  | 40 | 6 ng·h/mL | 40 nM | 
24 | COc1ccc(CCN(C)c2cc3nc(-c4ccco4)nn3c(N)n2)cc1 |  |  |  |  | 473 |  | 1.8 nM | 
25 | Nc1nc(SCCN2CCN(c3ccc(F)cc3F)CC2)cc2nc(-c3ccco3)nn12 | 5% | 45% | 50% | 50% | 365 | 229 ng·h/mL | 1.4 nM | 
26 | COc1ccc(CCOc2cc3nc(-c4ccco4)nn3c(N)n2)cc1 |  |  |  |  | 58 |  | 2.8 nM | 
27 | Nc1nc(NCCN2CCN(c3ccc(F)cc3F)CC2)cc2nc(-c3ccco3)nn12 |  |  |  |  | 262 |  | 1.5 nM | 
28 | CN(CCc1ccc(F)cc1)c1cc2nc(-c3ccco3)nn2c(N)n1 |  |  |  |  | 248 |  | 2 nM | 
29 | COCCOc1ccc(N2CCN(CCSc3cc4nc(-c5ccco5)nn4c(N)n3)CC2)cc1 | 15% | 65% | 50% | 65% | 965 | 910 ng·h/mL | 1.5 nM | 
30 | CCN(CCN1CCN(c2ccc(OCCOC)cc2)CC1)c1cc2nc(-c3ccco3)nn2c(N)n1 |  |  |  |  | 102 | 230 ng·h/mL | 1.5 nM | 
31 | Cc1nccnc1-c1nc2cc(N(C)CCN3CCN(c4ccc(F)cc4F)CC3)nc(N)n2n1 |  |  |  |  | 7370 |  | 0.3 nM | 
32 | CCN(CCc1ccc(F)cc1)c1cc2nc(-c3ccco3)nn2c(N)n1 |  |  |  |  | 525 |  | 3 nM | 
